Data published in patent US20260097037A1, “FUSED RING COMPOUND HAVING GLP-1 RECEPTOR AGONIST EFFECT” (Shionogi & Co., Ltd., priority 2022, published 2026).

Molecular target: T1, Human GLP-1 receptor stably expressing cells (hGLP-1R/CHO-K1 cells) (Homo sapiens, UniProt P43220)
T1 construct: expressed in transfected cells
Assay: Measurement of GLP-1 receptor agonist activity (cAMP assay)
Assay type: cell-based
Conditions: for Emax: CHO-K1, maximum effect, cAMP with 2 nM human GLP-1 (7-36) = 100%, DMSO only = 0%, read-out: Emax; for EC50: increase in cAMP concentration in hGLP-1R/CHO-K1 cells, 37° C. 1 hour
Method: Test Example 1: Measurement of GLP-1 Receptor Agonist Activity
Human GLP-1 receptor stably expressing cells (hGLP-1R/CHO-K1 cells) are cultured in an a-MEM medium (Sigma) containing 10% FBS (Hyclone), 2% GlutaMAX (Gibco), 1% G418 (Nacalai Tesque), and 1% Penicillin-Streptomycin Mixed Solution (Sigma) at 37° C. under 5% CO2 conditions, and recovered by treating a 10 fold diluted 5.0 g/1-trypsin/5.3 mmol/1-EDTA solution (Nacalai Tesque) and cryopreserved.
A DMSO solution containing the compound of the present invention or human GLP-1 (7-36) (Phoenix Pharmaceuticals) is dispensed into a 384-well microplate (Greiner) at 62.5 nL/well, and in addition, 400 μM Forskolin (Nacalai Tesque) is dispensed therein at 7.5 nL/well. Subsequently, the frozen GLP-1 R/CHO-K1 cells are thawed in a thermostatic bath at 37° C., suspended in HBSS buffer (GIBCO) containing 0.1% BSA (Sigma), 20 mM HEPES, 0.1 mM IBMX (Sigma), and 0.2 mM RO20-1724 (Calbiochem) at 2×10^4 cells/mL, and the cell suspension is added at 6 μL/well. The solution was incubated at 37° C. for 1 hour and intracellular cAMP concentration is measured using cAMP Gs dynamic kit (Cisbio) according to the protocol attached to the product. Specifically, a cAMP-d2/Anti-cAMP-Cryptate (1/1) mixture solution is added in a total amount of 6 μL/well, and is incubated at room temperature for 1 hour, and then, time-resolved fluorescence is measured using PHERAstar (BMG Labtech).
Assuming that the cAMP concentration when human GLP-1 (7-36) is dispensed to a final concentration of 2 nM is 100% and the cAMP concentration when only DMSO is dispensed is 0%, the 50% effective concentration (EC50) and the maximum effect (Emax) of the compound of the present invention are calculated using an increase in the cAMP concentration as an index, using TIBCO Spotfire (TIBCO Software). The dilution concentration or the dilution solvent are changed as necessary.
The compounds of the present invention were tested essentially as described above.

T1 sequence (P43220 24-463): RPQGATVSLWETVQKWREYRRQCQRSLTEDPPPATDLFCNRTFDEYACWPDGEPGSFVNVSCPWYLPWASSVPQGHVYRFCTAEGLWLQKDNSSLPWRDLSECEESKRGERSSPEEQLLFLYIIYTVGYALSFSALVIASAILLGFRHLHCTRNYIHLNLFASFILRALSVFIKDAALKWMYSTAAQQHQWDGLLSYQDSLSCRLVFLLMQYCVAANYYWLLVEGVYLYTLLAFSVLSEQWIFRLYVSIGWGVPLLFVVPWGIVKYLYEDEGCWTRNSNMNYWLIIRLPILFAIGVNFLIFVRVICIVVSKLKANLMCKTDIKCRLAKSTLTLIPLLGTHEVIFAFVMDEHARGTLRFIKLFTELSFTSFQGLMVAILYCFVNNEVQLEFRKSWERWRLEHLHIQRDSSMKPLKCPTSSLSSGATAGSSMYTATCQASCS

Structure (SMILES) | Emax [%] | EC50 [nM]
C[C@H]1c2c(cc(C(F)(F)F)c3c2O[C@@](C)(c2ccc(Cl)cc2F)O3)CCN1Cc1nc2ccc(C(=O)O)cc2n1C[C@@H]1CCO1 [Compound I-047] | 146 | 0.903
C[C@H]1c2nc(OCc3ncc(Cl)s3)c(C(F)(F)F)cc2CCN1Cc1nc2ccc(C(=O)O)cc2n1C[C@@H]1CCO1 [Compound I-048] | 93.7 | 3.31
C[C@H]1c2nc(OCc3ccc(Cl)cc3F)c(C(F)(F)F)cc2CCN1Cc1nc2sc(C(=O)O)cc2n1C[C@@H]1CCO1 [Compound I-049] | 112 | 0.307
C[C@H]1c2nc(OCc3nc4ccccc4s3)c(C(F)(F)F)cc2CCN1Cc1nc2ccc(C(=O)O)cc2n1C[C@@H]1CCO1 [Compound I-050] | 97 | 0.638
C[C@H]1c2nc(OCc3ccc(F)cc3)c(C(F)F)cc2CCN1Cc1nc2ccc(C(=O)O)cc2n1C[C@@H]1CCO1 [Compound I-051] | 118 | 1.02
C[C@H]1c2nc(OCc3ccc(Cl)cc3)c(C(F)F)cc2CCN1Cc1nc2ccc(C(=O)O)cc2n1C[C@@H]1CCO1 [Compound I-052] | 115 | 0.252
Cc1ccc(COc2nc3c(cc2C(F)F)CCN(Cc2nc4ccc(C(=O)O)cc4n2C[C@@H]2CCO2)[C@H]3C)cc1 [Compound I-053] | 123 | 0.417
COc1cc(Cl)ccc1COc1nc2c(cc1C(F)F)CCN(Cc1nc3ccc(C(=O)O)cc3n1C[C@@H]1CCO1)[C@H]2C [Compound I-054] | 121 | 0.0963
C[C@H]1c2nc(OCc3ccccc3Cl)c(C(F)F)cc2CCN1Cc1nc2ccc(C(=O)O)cc2n1C[C@@H]1CCO1 [Compound I-055] | 97 | 0.902
C[C@H]1c2nc(OCc3ccc(F)cc3F)c(C(F)F)cc2CCN1Cc1nc2ccc(C(=O)O)cc2n1C[C@@H]1CCO1 [Compound I-056] | 108 | 0.354
C[C@H]1c2nc(OCc3ccc(Cl)cc3Cl)c(C(F)F)cc2CCN1Cc1nc2ccc(C(=O)O)cc2n1C[C@@H]1CCO1 [Compound I-057] | 86.7 | 0.315
C[C@H]1c2nc(OCc3ccc(Cl)cn3)c(C(F)F)cc2CCN1Cc1nc2ccc(C(=O)O)cc2n1C[C@@H]1CCO1 [Compound I-058] | 92.7 | 0.924
C[C@H]1c2nc(OCc3ccc(OC(F)F)cc3F)c(C(F)F)cc2CCN1Cc1nc2ccc(C(=O)O)cc2n1C[C@@H]1CCO1 [Compound I-059] | 104 | 1.28
C[C@H]1c2nc(OCc3c(F)cc(Cl)cc3F)c(C(F)F)cc2CCN1Cc1nc2ccc(C(=O)O)cc2n1C[C@@H]1CCO1 [Compound I-060] | 105 | 0.147
C[C@H]1c2nc(OCc3c(F)cc(F)cc3F)c(C(F)F)cc2CCN1Cc1nc2ccc(C(=O)O)cc2n1C[C@@H]1CCO1 [Compound I-061] | 101 | 0.295
C[C@H]1c2nc(OCc3cc(F)c(Cl)cc3F)c(C(F)F)cc2CCN1Cc1nc2ccc(C(=O)O)cc2n1C[C@@H]1CCO1 [Compound I-062] | 99.3 | 0.215
C[C@H]1c2nc(OCc3ccc(C#N)cc3F)c(C(F)F)cc2CCN1Cc1nc2ccc(C(=O)O)cc2n1C[C@@H]1CCO1 [Compound I-063] | 92.3 | 0.195
C[C@H]1c2nc(OCc3ccc(Cl)cc3F)c(C(F)(F)F)cc2CCN1Cc1nc2c(-c3ccn(C)n3)cc(C(=O)O)cc2n1C[C@@H]1CCO1 [Compound I-064] | 102 | 0.345
COc1cc(C(=O)O)cc2c1nc(CN1CCc3cc(Cl)c(OCc4ccc(Cl)cn4)nc3[C@@H]1C)n2C[C@@H]1CCO1 [Compound I-065] | 104 | 0.0809

Structure (SMILES) | Emax [%] | EC50 [nM]
COc1cc(C(=O)O)cc2c1nc(CN1CCc3cc(Cl)c(OCc4ccc(Cl)cc4)nc3[C@@H]1C)n2C[C@@H]1CCO1 [Compound I-066] | 106 | 0.0375
COc1cc(C(=O)O)cc2c1nc(CN1CCc3cc(Cl)c(OCc4ccc(C)cc4)nc3[C@@H]1C)n2C[C@@H]1CCO1 [Compound I-067] | 98.3 | 0.0605
COc1cc(C(=O)O)cc2c1nc(CN1CCc3cc(Cl)c(OCc4ccccc4Cl)nc3[C@@H]1C)n2C[C@@H]1CCO1 [Compound I-068] | 112 | 0.194
COc1cc(C(=O)O)cc2c1nc(CN1CCc3cc(Cl)c(OCc4ccc(F)cc4F)nc3[C@@H]1C)n2C[C@@H]1CCO1 [Compound I-069] | 109 | 0.0422
COc1cc(C(=O)O)cc2c1nc(CN1CCc3cc(Cl)c(OCc4ccc(Cl)cc4Cl)nc3[C@@H]1C)n2C[C@@H]1CCO1 [Compound I-070] | 105 | 0.0187
COc1cc(C(=O)O)cc2c1nc(CN1CCc3cc(Cl)c(OCc4ccc(OC(F)F)cc4F)nc3[C@@H]1C)n2C[C@@H]1CCO1 [Compound I-071] | 110 | 0.0683
COc1cc(C(=O)O)cc2c1nc(CN1CCc3cc(Cl)c(OCc4cc(F)c(Cl)cc4F)nc3[C@@H]1C)n2C[C@@H]1CCO1 [Compound I-072] | 106 | 0.0274
COc1cc(C(=O)O)cc2c1nc(CN1CCc3cc(Cl)c(OCc4ccc(F)cc4)nc3[C@@H]1C)n2C[C@@H]1CCO1 [Compound I-073] | 101 | 0.0658
COc1cc(C(=O)O)cc2c1nc(CN1CCc3cc(Cl)c(OCc4c(F)cc(Cl)cc4F)cc3[C@@H]1C)n2C[C@@H]1CCO1 [Compound I-074] | 104 | 0.0232
COc1cc(C(=O)O)cc2c1nc(CN1CCc3cc(Cl)c(OCc4c(F)cc(F)cc4F)nc3[C@@H]1C)n2C[C@@H]1CCO1 [Compound I-075] | 118 | 0.0493
COc1cc(C(=O)O)cc2c1nc(CN1CCc3cc(Cl)c(OCc4ccc(Cl)cc4F)nc3[C@@H]1C)n2C[C@@H]1CCO1 [Compound I-076] | 122 | 0.0208
O=C(O)c1ccc2nc(CC3CCc4cc(C(F)(F)F)c(OCc5ccc(Cl)cc5F)cc4C3)n(C[C@@H]3CCO3)c2c1 (stereo partly shown) [Compound I-077] | 92.3 | 7.35
CC1c2nc(OCc3ccc(Cl)cc3F)ncc2CCN1Cc1nc2ccc(C(=O)O)cc2n1C[C@@H]1CCO1 (stereo partly shown) [Compound I-078] | 96 | 14.8
C[C@@H]1c2nc(OCc3ccc(Cl)cc3F)ncc2CCN1Cc1nc2ccc(C(=O)O)cc2n1C[C@@H]1CCO1 [Compound I-079] | 75.7 | 886
C[C@H]1c2nc(OCc3ccc(Cl)cc3F)ncc2CCN1Cc1nc2ccc(C(=O)O)cc2n1C[C@@H]1CCO1 [Compound I-080] | 88.3 | 9.31
C[C@H]1c2nc(OCc3ccc(Cl)cn3)c(Cl)cc2CCN1Cc1nc2c(F)cc(C(=O)O)cc2n1C[C@@H]1CCO1 [Compound I-081] | 96.7 | 0.179
C[C@H]1c2nc(OCc3ccc(Cl)cc3)c(Cl)cc2CCN1Cc1nc2c(F)cc(C(=O)O)cc2n1C[C@@H]1CCO1 [Compound I-082] | 100 | 0.0849
C[C@H]1c2nc(OCc3ccc(F)cc3F)c(Cl)cc2CCN1Cc1nc2c(F)cc(C(=O)O)cc2n1C[C@@H]1CCO1 [Compound I-083] | 116 | 0.122
C[C@H]1c2nc(OCc3ccc(Cl)cc3Cl)c(Cl)cc2CCN1Cc1nc2c(F)cc(C(=O)O)cc2n1C[C@@H]1CCO1 [Compound I-084] | 94.7 | 0.0587
